The results in this text go back to paper PMC11352409, “Subtype-Specific Ligand Binding and Activation Gating in Homomeric and Heteromeric P2X Receptors” (Biomolecules, 2024).

For one test, the target named is T1, human P2X2/3 receptors (Homo sapiens, UniProt P56373+Q9UBL9).
T1 construct: expressed in transfected cells
T1 sequence (Q9UBL9 1-404 isoform Q9UBL9-2): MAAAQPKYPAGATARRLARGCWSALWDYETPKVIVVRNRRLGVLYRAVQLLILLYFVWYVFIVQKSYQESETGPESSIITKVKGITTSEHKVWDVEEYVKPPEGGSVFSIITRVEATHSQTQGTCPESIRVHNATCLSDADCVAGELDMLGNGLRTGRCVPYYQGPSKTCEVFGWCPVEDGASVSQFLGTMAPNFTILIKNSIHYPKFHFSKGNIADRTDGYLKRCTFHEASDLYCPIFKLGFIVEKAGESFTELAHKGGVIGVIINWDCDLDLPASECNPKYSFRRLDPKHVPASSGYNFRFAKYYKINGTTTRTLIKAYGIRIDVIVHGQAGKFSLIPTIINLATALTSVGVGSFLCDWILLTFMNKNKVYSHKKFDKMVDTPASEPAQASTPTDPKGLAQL
T1 sequence (P56373 1-397): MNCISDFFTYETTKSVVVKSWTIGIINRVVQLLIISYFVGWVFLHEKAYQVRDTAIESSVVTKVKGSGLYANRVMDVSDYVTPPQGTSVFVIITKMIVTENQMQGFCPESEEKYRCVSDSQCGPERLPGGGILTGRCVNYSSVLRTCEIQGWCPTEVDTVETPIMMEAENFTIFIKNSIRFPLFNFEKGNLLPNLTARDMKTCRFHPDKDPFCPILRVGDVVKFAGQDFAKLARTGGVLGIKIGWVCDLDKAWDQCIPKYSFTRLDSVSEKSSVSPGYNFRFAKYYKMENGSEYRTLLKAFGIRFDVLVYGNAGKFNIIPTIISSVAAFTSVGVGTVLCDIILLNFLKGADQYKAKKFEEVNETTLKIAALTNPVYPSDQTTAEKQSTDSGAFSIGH
Description: Whole-cell patch-clamp concentration-activation, HEK293 cells stably expressing hP2X2/3. It counts as cell-based. As to conditions: for Hill: hP2X2/3, Hill coefficient of concentration-activation fit; for Effect (Fold in ATP Efficacy): hP2X2/3, relative to current at 100 µM ATP; for EC50: hP2X2/3, whole-cell, -50 mV, divalent-cation-free bath with 10 mM EGTA, normalised to 100 µM ATP. The protocol:
(§1) Human P2X receptors were expressed from HEK293 cell lines containing an inducible promoter system (Flp-In-T-REx 293, Invitrogen, Waltham, MA, USA). The used cell lines were: hP2X2 B (RRID: AC line CVCL_D6U1), hP2X3 (RRID: AC line CVCL_D6U3), and hP2X2/3 (RRID: AC line CVCL_D6U2). The cells were cultured in MEM supplemented with non-essential amino acids (Gibco, Waltham, MA, USA), 10% FCS, and antibiotics, according to the manufacturer’s instructions. For stable cell lines, Flp-In-T-REx 293 cells were transfected using the calcium phosphate method with a mixture of plasmids (0.3 µg pcDNA5/FRT/TO P2X gene and 1.5 µg pOG44) and selected for hygromycin resistance. The cells were seeded on glass coverslips for electrophysiological measurements and used 24–48 h after tetracycline induction ([…]).
(§2) Membrane currents were recorded with a standard patch-clamp technique in the whole-cell configuration. The patch pipettes were pulled from borosilicate glass (ID 1.0 mm, OD 2.0 mm; VITROCOM, Mountain Lakes, NJ, USA) using a micropipette puller (P-97, Sutter Instrument, Novato, CA, USA). The pipettes were filled with intracellular solution containing (mM) 142 NaCl, 5 BAPTA, 5 EGTA, and 10 HEPES at pH 7.4. The pipette resistance was from 2.0 to 6.0 MΩ. The bath solution contained (mM) 142 NaCl, 10 EGTA, 10 HEPES, and 10 glucose at pH 7.4. To increase the speed of recovery from the hP2X3 receptors, we additionally used a bath solution containing (mM) 142 NaCl, 10 HEPES, 10 glucose, 2 CaCl2, and 1 MgCl2. The cells were lifted for recording from the chamber bottom by the patch pipette and positioned in front of the outlet of the application pipette.
(§3) Solutions switches were carried out with the application pipette that had three barrels (inner diameter ~600 µm, Warner Instruments) controlled by a step motor (SF-77B, Warner Instruments). The speed of the laminar solution flow out of the barrels was estimated to be 2–5 cm/s. One barrel contained a control solution and another was connected to a solution selector (Vici Valco Instruments), which allowed us to apply different test solutions by exchanging the solution during the interval (60 sec for P2X2 and P2X2/3 receptors, 180 s for P2X3 receptors) of applying the control solution. Cells expressing hP2X3 were washed with 3 Units/mL apyrase for 30 min to remove ATP. To ensure the comparability of the data points between each application, we rinsed hP2X3 with the following solution for 3 min after each ATP application (mM): 142 NaCl, 10 HEPES, 10 glucose, 2 CaCl2, and 1 MgCl2 at pH 7.4. After sufficient recovery, we switched to the bath solution for 10 s and then to the solution of interest. The speed of the switch around a whole cell was estimated to be below 10 ms by switching between different salt solutions.
(§4) The saturation of activation was determined with ATP at 100 µM. The currents were recorded with a HEKA EPC 10 amplifier in combination with the patchmaster software. The sampling rate was 10 kHz and the recordings were on-line filtered at 2.9 kHz using a four-pole Bessel filter. The currents were recorded at a constant holding potential of −50 mV and the series resistance was compensated with the patchmaster software up to 80%.
(§5) The concentration–activation relationships from whole-cell measurements in the HEK293 cells were obtained from the maximum currents during ATP application. These current amplitudes were normalised with respect to the current at saturating ATP (100 µM) and the resulting data points were fitted I/ImaxATP = Amp/(1 + (EC50/[X])^h) (1) with the Origin 2019® software using a non-linear curve fitting routine. I is the actual current amplitude and ImaxATP is the maximum current amplitude at saturating ATP. The amplitude Amp is the efficacy of the respective ligands. EC50 is the ligand concentration generating the half-maximum current and h is the respective Hill coefficient. [X] is the actual concentration of ATP to be tested. […]
(Patch clamp records ionic current or voltage across a cell membrane.)

Another test addresses T2, human P2X3 receptors (Homo sapiens, UniProt P56373).
T2 construct: expressed in transfected cells
T2 sequence (P56373 1-397): T1 sequence (P56373 1-397)
Description: Whole-cell patch-clamp concentration-activation, HEK293 cells stably expressing hP2X3. It counts as cell-based. As to conditions: for Hill: hP2X3, Hill coefficient of concentration-activation fit; for Effect (Fold in ATP Potency): hP2X3, relative to ATP; for Effect (Fold in ATP Efficacy): hP2X3, relative to current at 100 µM ATP; for EC50: hP2X3, whole-cell, -50 mV, divalent-cation-free bath with 10 mM EGTA, normalised to 100 µM ATP. How it is done: as §1, §2, §3, §4, §5

Usually EC50 stands for the concentration needed to bring the measured effect to its halfway point. Take `COCC[N+]1=C(C=CC=C2N(CCCCCC(=O)NCCCCCCSc3nc(N)c4ncn(C5OC(COP(=O)(O)CP(=O)(O)OP(=O)(O)O)C(O)C5O)c4n3)c3ccc(S(=O)(=O)O)cc3C2(C)C)C(C)(C)c2cc(S(=O)(=O)[O-])ccc21` (stereo not drawn) [α,βMe-fATP, 2-[DY-547P1]-AHT-α,βMe-ATP]: at human P2X2/3 receptors, the Hill is recorded as 4.4 ± 3.5, the “Effect (Fold in ATP Efficacy)” value turned out to be 0.03 fold and the EC50 worked out at 1500 ± 600 nM. Further, the “Effect (Fold in ATP Potency)” value on human P2X2/3 receptors (hP2X2/3, relative to ATP) stood at 1.8 fold. Moreover, on human P2X3 receptors, the Hill is reported as 3.5 ± 0.0, the “Effect (Fold in ATP Potency)” value amounted to 0.1 fold, the “Effect (Fold in ATP Efficacy)” value stood at 1.0 fold and the EC50 stood at 8100 nM.

Turning to `COCC[N+]1=C(C=CC=C2N(CCCCCC(=O)NCCCCCCSc3nc(N)c4ncn(C5OC(COP(=O)(O)OP(=O)(O)OP(=O)(O)O)C(O)C5O)c4n3)c3ccc(S(=O)(=O)O)cc3C2(C)C)C(C)(C)c2cc(S(=O)(=O)[O-])ccc21` (stereo not shown) [fATP, 2-[DY-547P1]-AHT-ATP], on human P2X2/3 receptors, the Hill was 0.9 ± 0.2, the “Effect (Fold in ATP Efficacy)” value turned out to be 0.4 fold and the EC50 worked out at 700 ± 300 nM. In addition, the “Agonist behaviour (current response)” value on human P2X2/3 receptors (hP2X2/3, result in words) is reported as “partial agonist”. In addition, at human P2X3 receptors, the Hill is 1.6 ± 0.1, the “Effect (Fold in ATP Potency)” value was determined as 0.9 fold, the “Effect (Fold in ATP Efficacy)” value was 0.8 fold and the EC50 was 1300 ± 100 nM.
